Measured values: EP1501797B1, “3-(SUBSTITUTED AMINO)-1H-INDOLE-2-CARBOXYLIC ACID ESTER AND 3-(SUBSTITUTED AMINO)-BENZO[B]THIOPHENE-2-CARBOXYLIC ACID ESTER DERIVATIVES AS INTERLEUKIN-4 GENE EXPRESSION INHIBITORS” (Aventis Pharmaceuticals Inc., priority 2002, dated 2003)

Experiments:
[1] = tested on: IL-4; assay: In vivo ovalbumin (OVA) mouse model, BALF IL-4; set-up: species or system mice; details: for IL-4 pg/ml (± SEM): 30 minutes before OVA challenge, BALF 24 hours, vehicle 1220.4 ± 207.7
Description: This model is designed to determine the ability of a test article to modulate an antigen-induced pulmonary inflammatory cell accumulation in sensitized Balb/c mice from Charles River Laboratories. The mice are given a two week time period from arrival date prior to sensitizations.
On days 0, 7, 14, each animal is injected intraperitoneal (i.p.) with a 0.2 ml Ovalbumin Hydragel solution. Each animal receives 10 µg of Ovalbumin in 0.2 mL of Hydragel, aluminum hydroxide adsorptive gel containing 2% aluminum oxide. […] On day 22, BALF samples are collected from one group of animals and used for cytokine analysis. On day 24, BALF is obtained from a second group of animals and used for differential cell counts.
Test System: Female Babl/cJ mice (Jackson Laboratories), approximately 6-9 weeks old, each weighing approximately 20 to 25 grams, are divided into ten animals per group.
Sensitization Regimen: Mice are sensitized by an intraperitoneal injection of 10 µg ovalbumin (OVA) mixed in 4 mg aluminum hydroxide Al(OH)3 gel suspension in 0.2 ml sterile saline on Days 0, 7 and 14. This suspension is prepared one hour before intraperitoneal injection into each mouse. The animals are ready for OVA challenge on Day 21.
Antigen Challenge: Animals are exposed to aerosolized OVA on day 21 (5% w/v in sterile saline) for 20 minutes. The aerosol is generated by a PARI-Master nebulizer, the outlet of which is connected to a small Plexiglas® chamber containing the animals. Bronchoalveolar lavage is performed on Day 22.
Method of Study Performance: On day 24, 72 hours following aerosol OVA exposure, a separate group of animals are anesthetized with urethane (0.15 - 0.2 gm/kg) and the trachea is exposed and cannulated. Lungs are lavaged with 2 x 0.5 ml Hank's balanced salt solution without Ca^2+ and Mg^2+ (HBSS; Gibco, Grand Island, NY) containing 0.1% EDTA. Lavage fluid is recovered after 30 sec by gentle aspiration and pooled for each animal. Samples are centrifuged at 2000 rpm for 15 minutes at 5°C. After centrifugation, individual supernatants are stored frozen at -80°C. The resulting pellet is resuspended in 0.5 ml of HBSS containing 0.1% EDTA. Total cells and eosinophils are determined using a Technicon Hl and cytoslides, respectively.
Administration of the Test/Control Article: The test article and vehicle dosing preparations are administered once to each anesthetized mouse intranasally using a 200 µl pipette at 30-60 minutes prior to OVA challenge. Each animal receives 50 µl (25 µl/nostril) at each time point. Method of Euthanasia: Urethane overdose at in-life completion.
Compounds administered 30 minutes before aerosol ovalbumin challenge in ova sensitized mice. BALF harvested 24 hours after aerosol challenge. N = 6/group.
Mice (12 animals per group) are sensitized with 0.2 ml of an AlOH3 hydrogel suspension (2% AlOH3) containing 50 µg/ml ovalbumin on days 0, 7 and 14. […] The glucocorticosteroid budesonide (10 mg/kg) is included as a control. All compounds are given in 0.5% methylcellulose/0.2% Tween 80, intranasally (50µl). After the OVA challenge for 24 hours, the mice underwent bronchoalveolar lavage and IL-4 and IL-13 levels in the BALF are determined by ELISA. Another group of mice underwent bronchoalveolar lavage (72 hours after treatment) to determine the number of the eosinophils (*p<0.05, **p<0.01).
Compounds are given (30 mg/kg), intranasally, once, 30 min before OVA challenge unless noted otherwise. BAL fluids are collected 24 hours after OVA challenge and the cytokine levels are measured by standard ELISAs.

[2] = tested on: eosinophil; assay: OVA-induced lung inflammation in Brown Norway rats, eosinophil influx into bronchoalveolar fluid; type: in vivo; details: Rattus norvegicus, ip, intraperitoneal injection, FIG. 2, read-out: ED50, inhibition of the influx of eosinophil
Description: Rat model was very similar to the mouse models described earlier. Briefly, the lung inflammatory model described by Haczku et al. was used with minor modifications (Haczku A., et al., Immunology, (1996), 88, 247-251). Male Brown Norway rats, weighing 160-200 grams were sensitized with intraperitoneal injection of 1ml of a suspension containing ovalbumin (1 mg) and Al(OH)3 (100 mg) on days 1, 2 and 3. Three weeks later, the rats were treated with vehicle or drugs via intraperitoneal injections. One hour later, the rats were challenged with ovalbumin inhalation (1% solution, 10 mg/ml in sterilized saline) for 20 minutes in a 10 liter Plexiglas chamber which was connected to a DeVilbiss (Ultra-NEB®99) nebulizer with a carrier air flow of 1 liter/minute.
Results of dose response studies of 3-(4-pyridinylamino)-1H-indole-2-carboxylic acid on eosinophil influx into the bronchoalveolar fluid of ovalbumin sensitized and challenged Brown Norway rats are depicted as bar graphs in FIG. 2. Single dose of cyclosporin A (CsA) and dexamethasone (Dex) were also included as reference standards.

O=C(O)c1[nH]c2ccccc2c1Nc1ccncc1 [Example 28, 3-(4-Pyridinylamino)-1H-indole-2-carboxylic acid]
IL-4 pg/ml (± SEM) ([1]; 3 mg/kg intranasal): 835.1 ± 40.4 pg/mL
IL-4 pg/ml (± SEM) ([1]; 10 mg/kg intranasal): 414.3 ± 115.5 pg/mL
IL-4 pg/ml (± SEM) ([1]; 30 mg/kg intranasal): 123.9 ± 48.7 pg/mL
ED50 ([1]; Mus musculus, mice, intranasally, FIG. 1, read-out: ED50, allergen-induced IL-4 levels in the BALF): ~10 mg/kg
ED50 [2]: 10.1 mg/kg
